# Reference: patent publication US7091185B2, “Periodic antimicrobial peptides” (Dow Global Technologies Inc., priority 2003, dated 2006)
# Where two headings read alike, the source gives them in different places. Where no end group is shown, it is not given here.
# Experiments:
# Red blood cell toxicity = type: cell-based; settings: red blood cells (RBC)
# Red blood cells (RBC) = assay: Red blood cell toxicity; type: cell-based
# HeLa cell line = assay: HeLa MTS cellular reduction toxicity assay; type: cell-based; settings: for TX50: 24 h, MTS
# Protocol: The RBC protocol was from Blondelle (2000) and is described generally as follows: The toxicity toward the HeLa cell line was determined using a MTS (3-(4-5-dimethylthiazol-2-yl)-5-(3carboxymethoxyphenyl)-2-(4-sulfophenyl)-2H-tetrazolium, sodium salt) cellular reduction assay. MTS (2 mg/mL) was prepared in Dulbecco PBS (pH 7.35), filtered, aliquoted and stored at minus 20° C. In 96 well flat bottomed plates, cell suspensions (250 μL of 6×10^4 cell/mL in each well) were incubated for 48 h at 37° C. (5% CO2 incubator). The peptides (50 μL) were then added to the cell monolayer (following aspiration of the media from each well and addition of 50 μL of Dulbecco's Modified Eagles Medium) at varying concentrations derived from serial 2-fold dilutions, and the plates incubated for 24 h at 37° C. (5% CO2 incubator). Proliferation was then determined by adding a solution of phenazine methosulfate (PMS: 0.92 mg/mL in DPBS) to MTS at a 1:20 ration just prior to the assay. Twenty microliters MTS-PMS solution were added to each well and the plates incubated for 1 h at 37° C. (5% CO2 incubator). The relative percent toxicity was determined by comparing the absorbance at 490 nm of each peptide to the absorbance of cells without peptide. The TX50 (concentration required for 50% toxicity) was calculated using a sigmoidal curve fitting software (Graphpad Prism).
# E. coli ATCC 2592 = settings: ATCC 2592
# Protocol: (§1) The bacteria tested were P. aeruginosa American Type Culture Collection Number (ATCC) 10145, E. coli ATCC 2592, and S. aureus (methicillin reseistant) ATTC 33591.
# (§2) All experiments were compared to bacterial growth under optimal growth conditions (37° C., pH 7.0, absence of additional salt, growth media—referred to as standard growth conditions). In each plate, no growth control (media alone), positive growth control (bacteria with no test sample), positive antimicrobial controls (agents with known antimicrobial activity) and test compounds were tested.
# (§3) The plates were incubated overnight, and the relative percent growth determined by optical density at 620 nm (OD620) using a […] […] PLUS™. […] All samples were tested in duplicate and each assay was repeated at least twice. […] IC50 and MIC are reported in μg/ml.
# [1] = system: S. aureus (methicillin resistant) ATCC 33591
# Protocol: as §1, §2, §3
# P. aeruginosa ATCC 10145 = settings: ATCC 10145
# Protocol: as §1, §2, §3
# Staph. aureus ATCC 6538 = assay: HMARQ biocidal kill activity; type: cell-based; settings: Staph. aureus ATCC 6538 (gram+)
# Protocol: (§4) Biocide efficacy protocols were improved by reducing sample size, organizing the test material into an array format, implementing most probable number (MPN) quantitation and using multi-channel liquid handling equipment. We call the new method “high-throughput microanalysis and rapid quantitation” or “HMARQ.” HMARQ is directly applicable to current industrial efficacy tests such as multi-cycle preservation challenge or time course disinfection tests.
# (§5) HMARQ is performed in a high throughput plate, such as 96-well microtiter plates. Typical sample volumes have been reduced down to 200 to 300 μL, but can be reduced further if desired. In these samples, no more than 10% of the total volume will be composed of the biocide and organism solution, and all non-matrix additions are normalized for all samples.
# (§6) The sample matrix is first inoculated with the desired concentration of microorganisms. Inoculated sample matrix is then added to the 96-well assay block containing the biocide(s) under study. Each sample block contains biocide treated samples and untreated control samples (lacking biocide). Once the samples are prepared, the entire block of samples is mixed by vortexing until each sample is homogenous. In general, the study starts once mixing is complete, and samples are removed as required for the analysis. When Kill Time testing (rate of biocide activity) is performed, the microorganisms are added after biocide addition to the samples, allowing for rapid mixing and analysis.
# (§7) Bacterial concentration (CFU/mL) is determined using the most probable number method (MPN). The contaminated solution is serially diluted until the “no growth” endpoint is reached. The endpoint represents the MPN and is expressed in units of the bacterial concentration. A serial 1:10 dilution will yield a bacterial concentration resolution of 1 log and the log reduction is determined by comparing the concentration of organisms in a treated sample to the concentration of organisms in untreated samples. For example, if a sample requires four 1:10 dilutions before bacterial growth is lost then the MPN for bacterial concentration in the sample is less than or equal to 1×10^4 CFU/mL (1E4). […] This method of enumeration is generally applicable to all non-filamentous microorganisms.
# (§8) Media included Tryptic Soy Broth (TSB) for bacteria and Sabouraud Dextrose Broth (SDB) for fungi. These are available commercially and prepared according to the manufacturers instructions. Indicator medium was TSB/R for bacteria and SDB/R for fungi. These were made by addition of 50 μM filter sterilized Resazurin to the sterilized and cooled medium. Tryptic Soy agar plates (TSA) and SDA slants were used to provide inoculant for bacterial and fungal cultures. The indicator dye appeared pink or white when bacterial growth was present.
# (§9) Using the HMARQ test described above, periodic peptides were generated and tested for Kill Activity. In this experiment, a broader range of peptidezs were tested for activity. Units are expressed as ppm (μg/mL) needed for 3.5 log kill at 15 min or 24 hour and the results are shown below.
# P. aeruginosa ATCC 15442 = assay: HMARQ biocidal kill activity; type: cell-based; settings: P. aeruginosa ATCC 15442 (gram−)
# Protocol: as §4, §5, §6, §7, §8, §9
# C. albicans 10231 = type: cell-based; settings: 10231
# Protocol: (§10) The MIC and IC50 values were determined by a broth microdilution method according to guidelines of the National Committee for Clinical Laboratory Standard as follows: In 96-well tissue culture plates, a fixed volume of bacterial suspension in 2× broth (as defined below) was added to the mixtures or individual compounds dispensed at concentrations varying from 1,000 to 1 μg/ml derived from serial two-fold dilutions in sterile water. The bacteria tested were P. aeruginosa American Type Culture Collection Number (ATCC) 10145, E. coli ATCC 2592, and S. aureus (methicillin reseistant) ATTC 33591.
# (§11) The plates were incubated overnight, and the relative percent growth determined by optical density at 620 nm (OD620) using a TITERTEK MULTISKAN PLUS™. […] IC50 values were calculated using a sigmoidal curve fitting software program (GRAPHPAD,™ ISI Software,™ San Diego, Calif.). All samples were tested in duplicate and each assay was repeated at least twice. In the following table, KFAK is the repeat unit and multimers of KFAK were tested. IC50 and MIC are reported in μg/ml.
# (§12) Because the antibacterial activity of the periodic peptides was so promising, further experiments were performed to determine if the periodic peptides also had antifungal activity. The experimental design was similar to that above, with accommodation made for fungal growth requirements, including the use of Sabouraud Dextrose Broth (SDB) and Sabouraud Dextrose Agar (SDA) slants.
# Cr. Neoformans 32045 = type: cell-based
# Protocol: as §10, §11, §12
# [2] = RBCs, concentration required for 50% toxicity, read-out: TX50
# [3] = S. aureus (methicillin resistant) 33591, gram+
Substance,HC50 at 24 h (Red blood cell toxicity) [µg/mL],% kill at 250 μg/ml (Red blood cells (RBC)) [%],% kill at 500 μg/ml (HeLa cell line) [%],TX50 (HeLa cell line) [µg/mL],IC50 (E. coli ATCC 2592) [µg/mL],MIC (E. coli ATCC 2592) [µg/mL],IC50 ([1]; ATCC 33591) [µg/mL],MIC ([1]; ATCC 33591) [µg/mL],IC50 (P. aeruginosa ATCC 10145) [µg/mL],MIC (P. aeruginosa ATCC 10145) [µg/mL],ppm needed for 3.5 log kill at 15 min (Staph. aureus ATCC 6538) [ppm],ppm needed for 3.5 log kill at 24 hr (Staph. aureus ATCC 6538) [ppm],ppm needed for 3.5 log kill at 15 min (P. aeruginosa ATCC 15442) [ppm],ppm needed for 3.5 log kill at 24 hr (P. aeruginosa ATCC 15442) [ppm],IC50 (C. albicans 10231) [µg/mL],MIC (C. albicans 10231) [µg/mL],IC50 (Cr. Neoformans 32045) [µg/mL],MIC (Cr. Neoformans 32045) [µg/mL],HC50 at 24 h (Red blood cell toxicity; [2]) [µg/mL],further results
"AKKFAKKFAKKFAKKFAKKFAKKF [AKKF (6), AKKF AKKF AKKF AKKF AKKF AKKF]",39,100,7.3,33,8,16 to 32,41,125 to 250,21,25,>500,125,>500,16,225,250 to 500,11,16 to 32,–,–
"FKAFKAFKAFKAFKAFKA [FKA (6), FKA FKA FKA FKA FKA FKA]",–,28,110.8,>500,29,32 to 62,>500,>500,79,100,4,500,8,8,208,250 to 500,2.8,4 to 8,496,–
"FKAFKAFKAFKAFKAFKAFKA [FKA (7), FKA FKA FKA FKA FKA FKA FKA]",–,11,103.3,>500,7,16 to 32,>500,>500,23,32,500,500,125,63,203,250 to 500,3.2,4 to 8,> 500,–
"H-FAKKFAKKFAKKFAKKFAKKFAKK-OH [FAKK (6), FAKK FAKK FAKK FAKK FAKK FAKK]",> 500,7,28.3,359,11,17 to 32,108,>250,21,62,>500,250,>500,16,110,125 to 250,7.6,16 to 32,–,–
"H-KFAKKFAKKFAKKFAKKFAKKFAK-OH [KFAK (6), KFAK KFAK KFAK KFAK KFAK KFAK]",> 250,7.3,30.5,457.3,4,8 to 16,38.7,125 to 250,5.6,–,–,–,–,–,72,80 to 125,5.8,16 to 32,–,–
"KFAKKFAKKFAKKFAK [KFAK (4), KFAK KFAK KFAK KFAK]",–,–,76,>500,46,62 to 125,–,–,–,–,–,–,–,–,70,90 to 125,5.3,6.0 to 8.0,> 250,"% kill at 250 μg/ml (Red blood cells (RBC); RBCs, 250 μg/ml): 0.1%; IC50 [1, 3]: >250 µg/mL; MIC [1, 3]: >250 µg/mL"
"KFAKKFAKKFAKKFAKKFAK [KFAK (5), KFAK KFAK KFAK KFAK KFAK]",–,–,89,>500,6,16 to 32,–,–,–,–,–,–,–,–,66,90 to 125,5,8 to 16,> 250,"% kill at 250 μg/ml (Red blood cells (RBC); RBCs, 250 μg/ml): 4.1%; IC50 [1, 3]: >250 µg/mL; MIC [1, 3]: >250 µg/mL"
"KFAKKFAKKFAKKFAKKFAKKFAKKFAK [KFAK (7), KFAK KFAK KFAK KFAK KFAK KFAK KFAK]",> 250,13.7,13.0,204.1,8,32 to 62,108.8,>250,–,–,–,–,–,–,82,100 to 125,–,32 to 62,–,TX50 (Red blood cells (RBC)): >250 µg/mL
